Source: US7235649B2, “Isolated GRP94 ligand binding domain polypeptide and nucleic acid encoding same, and screening methods employing same” (Duke University, priority 2000, dated 2007)

Columns and labels:
[1] = biological target: N-terminal nucleotide binding pocket of Hsp90 (Saccharomyces cerevisiae, UniProt P02829); details: cited from earlier work
[2] = biological target: casein kinase II (Homo sapiens, UniProt P68400); assay: Casein kinase II assay with casein; assay type: biochemical; details: 180 μM NECA or 180 μM radicicol in 3.6% DMSO, 5 μg/ml heparin, 5 mM GTP; 4 μM casein
Chain of casein kinase II (P68400 whole entry): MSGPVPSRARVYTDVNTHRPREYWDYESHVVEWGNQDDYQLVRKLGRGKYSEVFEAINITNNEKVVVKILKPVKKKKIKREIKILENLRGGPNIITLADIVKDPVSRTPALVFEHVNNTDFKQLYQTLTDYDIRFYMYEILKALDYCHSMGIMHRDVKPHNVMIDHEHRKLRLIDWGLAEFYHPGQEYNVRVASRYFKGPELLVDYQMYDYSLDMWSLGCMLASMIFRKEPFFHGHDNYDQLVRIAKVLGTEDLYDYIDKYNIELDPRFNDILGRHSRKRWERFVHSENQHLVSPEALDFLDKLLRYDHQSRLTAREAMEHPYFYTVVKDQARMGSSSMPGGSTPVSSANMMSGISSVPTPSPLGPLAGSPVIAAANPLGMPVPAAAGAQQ
Chain of casein kinase II (P67870 whole entry partner): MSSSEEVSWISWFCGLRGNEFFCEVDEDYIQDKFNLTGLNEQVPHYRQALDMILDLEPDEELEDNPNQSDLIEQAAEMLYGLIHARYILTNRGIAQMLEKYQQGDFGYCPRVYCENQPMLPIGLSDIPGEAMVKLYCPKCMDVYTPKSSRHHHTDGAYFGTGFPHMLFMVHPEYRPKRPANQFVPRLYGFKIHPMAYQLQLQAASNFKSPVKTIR
Description: (§1) Phosphorylation Assays. […] For the casein kinase assay, 1 unit of casein kinase 11 was incubated as described above, with the addition of 4 μM casein. […] The 25 μl reaction mixtures were incubated at 37° C. for 1 hour and quenched by addition of 10% trichloroacetic acid. Samples were analyzed by 10% SDS-PAGE gels and the phosphorylated species were quantitated using a Fuji MACBAS1000™ phosphorimaging system (Fuji Medical Systems of Stamford, Conn.).

[3] = biological target: T1, GRP94 (Sus scrofa, UniProt Q29092); assay: [3H]-NECA competitive displacement assay; assay type: binding, porcine; design: GRP94 was purified from porcine pancreas rough microsomes; from tissue; host or cells: porcine pancreas rough microsomes; details: for competition with [3H]-NECA for binding to GRP94 (adenosine ligands) / nucleoside base specificity: binding by [3H]-NECA competitive displacement: 20 nM [3H]-NECA; for competition with [3H]-NECA for binding to GRP94 (adenosine ligands): nominal (80 μM) Mg2+; for effect of excess Mg2+ on binding to GRP94: 10 mM Mg(OAc)2 vs nominal endogenous magnesium; for nucleoside base specificity: binding by [3H]-NECA competitive displacement: competitors all at 50 μM
T1 sequence (Q29092 22-804): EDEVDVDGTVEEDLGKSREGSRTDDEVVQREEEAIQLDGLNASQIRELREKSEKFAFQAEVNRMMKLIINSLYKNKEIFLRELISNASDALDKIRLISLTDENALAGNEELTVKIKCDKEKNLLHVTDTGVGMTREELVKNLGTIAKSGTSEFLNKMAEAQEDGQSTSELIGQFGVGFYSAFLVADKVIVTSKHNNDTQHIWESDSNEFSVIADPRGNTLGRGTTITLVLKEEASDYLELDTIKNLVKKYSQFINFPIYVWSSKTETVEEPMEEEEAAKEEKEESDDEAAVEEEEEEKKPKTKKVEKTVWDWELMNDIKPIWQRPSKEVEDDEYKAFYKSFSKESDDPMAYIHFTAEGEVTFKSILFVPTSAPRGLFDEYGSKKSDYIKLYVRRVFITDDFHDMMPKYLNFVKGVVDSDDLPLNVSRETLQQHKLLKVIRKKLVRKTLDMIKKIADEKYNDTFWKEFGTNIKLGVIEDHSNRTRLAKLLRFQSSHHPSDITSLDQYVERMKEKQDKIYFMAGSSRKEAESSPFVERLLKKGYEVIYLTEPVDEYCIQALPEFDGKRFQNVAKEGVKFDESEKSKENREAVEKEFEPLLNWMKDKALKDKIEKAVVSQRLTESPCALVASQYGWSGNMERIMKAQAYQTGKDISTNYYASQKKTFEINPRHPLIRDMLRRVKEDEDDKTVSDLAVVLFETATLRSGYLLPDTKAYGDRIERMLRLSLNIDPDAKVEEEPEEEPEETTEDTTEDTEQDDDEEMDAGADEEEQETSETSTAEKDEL

[4] = biological target: T1, GRP94; assay: Fluorophore binding reactions with native or heat shocked GRP94 (fluorescence emission); details: for fluorophore binding to heat shocked GRP94: 0.5 μM GRP94 heat shocked 15 minutes at 50° C., 5 μM probe
[5] = biological target: T1, GRP94; assay: GRP94 autophosphorylation assay; assay type: biochemical, porcine; design: GRP94 was purified from porcine pancreas rough microsomes; from tissue; host or cells: porcine pancreas rough microsomes; details: 180 μM NECA or 180 μM radicicol in 3.6% DMSO, 5 μg/ml heparin, 5 mM GTP; 1 hour 37° C.
Description: as §1

[6] = biological target: T1, GRP94; assay: Tryptophan fluorescence (ligand-induced conformational change); details: 50 μM NECA, 50 μM geldanamycin, 2.5 mM ATP or 2.5 mM ADP, 1 hour at 37° C.
Description: Tryptophan Fluorescence. Tryptophan fluorescence measurements were conducted in a FLUOROMAX™ spectrofluorometer (Spex Industries, Inc. of Edison, N.J.) with the slit widths set to 1 nm for both excitation and emission. […] All spectra were corrected by subtraction of buffer or buffer plus ligand samples. […] Samples were then cooled to room temperature, transferred to a quartz cuvette, and the spectra collected.

Chain of N-terminal nucleotide binding pocket of Hsp90 (P02829 whole entry): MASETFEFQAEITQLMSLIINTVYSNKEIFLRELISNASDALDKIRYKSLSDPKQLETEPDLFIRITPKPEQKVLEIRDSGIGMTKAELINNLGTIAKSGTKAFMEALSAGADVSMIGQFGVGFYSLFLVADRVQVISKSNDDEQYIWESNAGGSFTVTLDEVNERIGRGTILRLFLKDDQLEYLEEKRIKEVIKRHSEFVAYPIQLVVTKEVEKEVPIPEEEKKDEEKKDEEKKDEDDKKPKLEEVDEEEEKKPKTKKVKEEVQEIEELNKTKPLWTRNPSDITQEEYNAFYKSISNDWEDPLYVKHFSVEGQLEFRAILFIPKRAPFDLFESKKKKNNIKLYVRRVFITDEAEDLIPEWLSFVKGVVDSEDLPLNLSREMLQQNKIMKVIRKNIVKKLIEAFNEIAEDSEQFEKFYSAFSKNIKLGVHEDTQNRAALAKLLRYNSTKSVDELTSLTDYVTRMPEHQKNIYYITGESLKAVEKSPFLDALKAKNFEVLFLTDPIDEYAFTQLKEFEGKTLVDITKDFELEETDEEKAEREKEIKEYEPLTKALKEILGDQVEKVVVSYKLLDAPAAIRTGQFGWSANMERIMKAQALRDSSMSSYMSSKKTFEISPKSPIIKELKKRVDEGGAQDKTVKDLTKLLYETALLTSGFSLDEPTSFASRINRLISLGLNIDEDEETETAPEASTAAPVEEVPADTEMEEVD

Compound: C[C@@H]1C[C@H]2O[C@@H]2/C=C\C=C\C(=O)Cc2c(Cl)c(O)cc(O)c2C(=O)O1 [radicicol]
- binding stoichiometry of radicicol to Hsp90 ([1]; Roe et al. (1999)): 2 mol radicicol/mol Hsp90 dimer
- effect on casein kinase II activity [2]: neither NECA nor radicicol, both of which bind to the N-terminal nucleotide binding domain of GRP94, significantly inhibit GRP94 derived or casein kinase II activity

Compound: Nc1ncnc2c1ncn2[C@@H]1O[C@H](CO)[C@@H](O)[C@H]1O [adenosine]
- competition with [3H]-NECA for binding to GRP94 (adenosine ligands) [3]: relative displacement activity approximating that observed for ADP
- effect of excess Mg2+ on binding to GRP94 [3]: without effect

Compound: O=S(=O)(O)c1cccc2cccc(Nc3ccccc3)c12 [8-ANS, 1,8-anilinonaphthalenesulfonate]
- fluorophore binding to heat shocked GRP94 [4]: binds avidly following heat shock
- fluorophore binding to native GRP94 ([4]; 0.5 μM native GRP94, 5 μM probe, 30 min at 37° C.): weak interactions with native GRP94

Compound: heparin
- effect on casein kinase II activity [2]: markedly attenuated
- effect on GRP94 autophosphorylation activity [5]: markedly attenuated

Compound: Nc1ccn([C@@H]2O[C@H](COP(=O)(O)OP(=O)(O)OP(=O)(O)O)[C@@H](O)[C@H]2O)c(=O)n1 [CTP]
- nucleoside base specificity: binding by [3H]-NECA competitive displacement [3]: little to no binding

Compound: O=c1ccn([C@@H]2O[C@H](COP(=O)(O)OP(=O)(O)OP(=O)(O)O)[C@@H](O)[C@H]2O)c(=O)[nH]1 [UTP]
- nucleoside base specificity: binding by [3H]-NECA competitive displacement [3]: little to no binding

Compound: Nc1nc2c(ncn2[C@@H]2O[C@H](COP(=O)(O)OP(=O)(O)OP(=O)(O)O)[C@@H](O)[C@H]2O)c(=O)[nH]1 [GTP]
- effect on casein kinase II activity [2]: markedly attenuated
- effect on GRP94 autophosphorylation activity [5]: markedly attenuated
- nucleoside base specificity: binding by [3H]-NECA competitive displacement [3]: little to no binding

Compound: Nc1ncnc2c1ncn2[C@H]1C[C@H](O)[C@@H](COP(=O)(O)OP(=O)(O)OP(=O)(O)O)O1 [deoxyATP]
- nucleoside base specificity: binding by [3H]-NECA competitive displacement [3]: could bind

Compound: Nc1ncnc2c1ncn2[C@@H]1O[C@H](COP(=O)(O)OP(=O)(O)O)[C@@H](O)[C@H]1O [ADP]
- affinity of N-terminal domain of Hsp90 for ADP relative to ATP ([1]; Prodromou et al. (1997)): four-fold higher affinity than that observed for ATP
- change of GRP94 tryptophan fluorescence [6]: the tryptophan fluorescence was decreased
- competition with [3H]-NECA for binding to GRP94 (adenosine ligands) [3]: effectively competed
- effect of excess Mg2+ on binding to GRP94 [3]: markedly stimulated
- extent of competition of NECA binding to GRP94 ([3]; FIGS. 10A–10C): wholly competed
- relative affinities for GRP94 in presence of Mg2+ ([3]; excess Mg2+): nearly identical relative affinities

Compound: CCC(=O)c1ccc2cc(N(C)C)ccc2c1 [Prodan, 6-propionyl-2-(dimethylamino)naphthalene]
- fluorophore binding to heat shocked GRP94 [4]: does not interact with the hydrophobic binding pocket(s) displayed by heat shocked GRP94

Compound: Nc1ncnc2c1ncn2[C@@H]1O[C@H](COP(=O)(O)O)[C@@H](O)[C@H]1O [AMP]
- competition with [3H]-NECA for binding to GRP94 (adenosine ligands) [3]: effectively competed
- effect of excess Mg2+ on binding to GRP94 [3]: markedly stimulated
